Data set [1] can be described thus: Dissociation constant, pKa of the compound. The data set is classed as physicochemical.
Data set [2] in a line: physchem. Conditions: octanol/water.
Data set [3] can be described thus: Fraction of the dose absorbed in iv dosed rat. In kind it is ADME, organism-based. Particulars: in vivo, read-out: Fabs.
A short description of data set [4]: Half life in iv dosed rat. The data set is classed as ADME, organism-based. Particulars: in vivo.
The nature of data set [5]: Volume of distribution at steady state in iv dosed rat. In kind it is ADME, organism-based. Particulars: in vivo, read-out: Vdss.
The nature of data set [6]: in vivo. Conditions: rat, iv.
A short description of data set [7]: in vitro. Conditions: human, hepatocytes.
The nature of data set [8]: Bioavailability in iv dosed rat. In kind it is ADME, organism-based. Particulars: in vivo.
Data set [9] has as its system Rattus norvegicus. The experiment in a line: Dose normalized AUC in po dosed rat. The data set is classed as ADME, organism-based. Particulars: in vivo.
Data set [10] can be described thus: in vitro. Conditions: human, Caco-2.

Molecules are shown by their SMILES.

By pKa is commonly meant the negative logarithm of the acid dissociation constant. Read a high pKa as a weaker acid or stronger base. What is called logD is the decadic logarithm of the distribution of all forms, ionised or not, between an organic phase and buffer at a given pH. By half-life is commonly meant how long it takes for the measured level to halve. Low readings indicate rapid decline, high ones slow decline. In general, clearance refers to the rate of elimination divided by the concentration. The term hepatocyte CLint denotes a measure of how fast metabolising enzymes remove a compound, apart from limits set by blood flow. Read a low hepatocyte CLint as slow turnover. By bioavailability is commonly meant dose-corrected exposure relative to a reference, in per cent. A high value points to much systemic uptake. One may read the AUC as concentration integrated over time. A lower AUC goes with less exposure. For orientation: Papp A→B means the apparent permeability from the apical to the basolateral side of a cell layer. A higher Papp A→B goes with fast passage.
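Wherever logD is given: distribution coefficient determined with the shake-flask method.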

For the compound `C[C@H](CO)Nc1cc(C(=O)O)nc(SCc2ccccc2)n1`, in data set [1], the pKa is 5.5. The logD in [2] was -0.7.
`C[C@H](CO)Nc1cc(NS(=O)(=O)Cc2ccccc2)nc(SCc2ccccc2)n1`: the log distribution coefficient (logD) in [2] came out at 2.7.
On to `C[C@H](CO)Nc1nc(SCc2cccc(F)c2F)nc2[nH]c(=O)sc12`, for which, in data set [3], the Fa was determined as 24%. In addition, in data set [4], the half-life was 1.1 h. The Vd in data set [5] worked out at 0.3 L/kg. The compound further returned a clearance in [6] of 6 mL/min/kg. The compound further gave a hepatocyte CLint in [7] of 15 µL/min/1e6 cells. This compound also had a bioavailability in data set [8] of 22%. In data set [9], this compound displayed an AUC of 2.1 µM·h.
Regarding `C[C@H](CO)Nc1cc(NS(=O)(=O)c2ccccc2)nc(SCc2ccccc2)n1`, in [1], the pKa was 6.6. The logD in data set [2] was 2.5.
`C[C@H](CO)Nc1cc(NS(=O)(=O)N(C)C)nc(SCc2cccc(Cl)c2F)n1` yielded a Papp A→B in data set [10] of 6.4 ×10⁻⁶ cm/s. In [2], this compound showed a logD of 3.4.
As for `C[C@H](CO)Nc1cc(NS(=O)(=O)N2CCC2)nc(SCc2cccc(F)c2F)n1`, the Fa in data set [3] is 50%. Moreover, in [4], the half-life was 3.2 h. Further, the Vd in [5] was found to be 1.4 L/kg. The same compound displayed a Papp A→B in [10] of 10.1 ×10⁻⁶ cm/s. In [6], this compound yielded a clearance of 8 mL/min/kg. In addition, the hepatocyte CLint in [7] is 3.1 µL/min/1e6 cells. In [8], this compound displayed a bioavailability of 44%. This compound displayed a pH-dependent lipophilicity (logD) in data set [2] of 2.6. The same compound registered an AUC/dose in data set [9] of 5.9 µM·h.
`C[C@H](CO)Nc1cc(NS(=O)(=O)c2ccc(Cl)cc2)nc(SCc2ccccc2)n1` returned a pKa in [1] of 6.5. This compound registered a logD in data set [2] of 3.5.
In [7], `C[C@H](CO)Nc1cc(NS(=O)(=O)N2CCC2)nc(SCc2cccc(Cl)c2F)n1` returned a hepatocyte CLint of 2.4 µL/min/1e6 cells. The same compound showed a logD in data set [2] of 3.2.
As to `C[C@H](CO)Nc1cc(NS(C)(=O)=O)nc(SCc2ccccc2)n1`, the pKa in [1] came to 6.9. This compound came in with a logD in data set [2] of 1.9.
In the case of `C[C@H](CO)Nc1cc(NS(=O)(=O)c2cn(C)cn2)nc(SCc2cccc(Cl)c2F)n1`, the apparent permeability from apical to basolateral (Papp A→B) in data set [10] was determined as 1.4 ×10⁻⁶ cm/s. Also, the pH-dependent lipophilicity (logD) in data set [2] came to 2.
As for `C[C@H](CO)Nc1nc(SCc2cccc(F)c2F)nc2nc(N)sc12`, in [3], the Fa was determined as 12%. In data set [8], this compound registered a bioavailability of 9%. The same compound had an AUC/dose in data set [9] of 0.7 µM·h.
The compound `C[C@H](CO)Nc1cc(NS(=O)(=O)N2CCCC2)nc(SCc2cccc(F)c2F)n1` returned a Papp A→B in [10] of 7.5 ×10⁻⁶ cm/s. The compound further came in with a hepatocyte CLint in data set [7] of 12 µL/min/1e6 cells. This compound displayed a pH-dependent lipophilicity (logD) in data set [2] of 3.4.
Turning to `C[C@H](CO)Nc1cc(NS(=O)(=O)N2CCNCC2)nc(SCc2cccc(Cl)c2F)n1`, the apparent permeability from apical to basolateral (Papp A→B) in data set [10] was 0.1 ×10⁻⁶ cm/s. Also, the pH-dependent lipophilicity (logD) in data set [2] is 1.5.
The compound `C[C@H](CO)Nc1cc(NS(=O)(=O)C(F)(F)F)nc(SCc2ccccc2)n1` registered a pKa in data set [1] of 5.8. The compound also displayed a log distribution coefficient (logD) in data set [2] of 2.2.
On to `C[C@H](CO)Nc1cc(NS(=O)(=O)c2ccc(C#N)cc2)nc(SCc2ccccc2)n1`, for which, in data set [1], the pKa was 6.1. Further, in data set [2], the pH-dependent lipophilicity (logD) came to 2.6.
As to `C[C@H](CO)Nc1cc(NS(=O)(=O)N2CCOCC2)nc(SCc2cccc(F)c2F)n1`, in data set [3], the Fa was 48%. For the same compound, the half-life in data set [4] is 1 h. In addition, in data set [5], the Vd is 1.1 L/kg. Also, the clearance in data set [6] was 25 mL/min/kg. Moreover, the hepatocyte CLint in [7] came to 4.6 µL/min/1e6 cells. Moreover, in data set [8], the bioavailability is 31%. Moreover, in data set [9], the AUC/dose was found to be 1.6 µM·h.
Take `C[C@H](CO)Nc1cc(NS(=O)(=O)N(C)C)nc(SCc2ccccc2)n1`: the pKa in [1] is 7.3. In [2], the pH-dependent lipophilicity (logD) worked out at 2.6.
In the same order, the values of `C[C@H](CO)Nc1cc(C(=O)NS(C)(=O)=O)nc(SCc2ccccc2)n1` are 4.9 and -0.7.
`C[C@H](CO)Nc1cc(NS(=O)(=O)N2CCCCC2)nc(SCc2cccc(F)c2F)n1` showed a hepatocyte CLint in data set [7] of 30 µL/min/1e6 cells. Also, in data set [2], the logD is 3.9.
`C[C@H](CO)Nc1cc(NS(=O)(=O)c2cn(C)cn2)nc(SCc2cccc(F)c2F)n1` returned a logD in data set [2] of 1.6.
In the case of `C[C@H](CO)Nc1cc(NS(=O)(=O)N2CCOCC2)nc(SCc2cccc(Cl)c2F)n1`, the Papp A→B in data set [10] came to 5.4 ×10⁻⁶ cm/s. In [7], this compound registered an intrinsic clearance (hepatocyte CLint) of 8 µL/min/1e6 cells. The compound further yielded a pH-dependent lipophilicity (logD) in data set [2] of 3.1.

(Values after ChEMBL document CHEMBL3400046, “Discovery and evaluation of a novel monocyclic series of CXCR2 antagonists” (Bioorg Med Chem Lett, 2015).)
